# Results taken from US20200407393A1, “Medical Use” (priority 2018, published 2020).
# pIC50: −log10 of the molar value. Like-named read-outs stand apart in the source and are kept apart here.
# Assays:
# [1] = test system: WT pseudotyped virus (PSV) infection of U373 cells; experiment: microbe, parasite or virus in culture; format: cell-based; conditions: for pIC50: Human immunodeficiency virus 1, U373 MG, cells treated 6 h, washed; for Fold Change vs EFdA: fold change of the persistence index relative to EFdA; for Persistence Index: ratio of the IC50 determined at 48 and 0 h
# [2] = test system: M184V pseudotyped virus in U373 cells; format: cell-based, HIV;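 further: reported value is IC50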
# [3] = test system: WT pseudotyped virus (NL4-3 provirus with HIV gp160 envelope) in U373 cells; experiment: PSV assay (pseudotyped virus assay), WT; conditions: read-out: WT IC50
# Excerpt: A pseudotyped virus assay (PSV) was used to assess the potency of the compounds. Replication defective virus was produced by co-transfection of a plasmid containing an NL4-3 provirus [containing a mutation in the envelope open reading frame (ORF) and a luciferase reporter gene replacing the nef ORF] and a CMV-promoter expression plasmid containing an ORF for various HIV gp160 envelope clones. The harvested virus was stored at −80 C in small aliquots and the titer of the virus measured to produce a robust signal for antiviral assays.
# The PSV assay was performed by using U373 cells stably transformed to express human CD4, the primary receptor for HIV entry and either human CXCR4 or human CCR5 which are the co-receptors required for HIV entry as target cells for infection. […] This dose-range was applied to U373 cells and the pre-made pseudotyped virus added. The amount of luciferase signal produced after 3 days of culture was used to reflect the level of pseudotyped virus infection. […] IC50 values were determined from a 10 point dose response curve using 3-4-fold serial dilution for each compound, which spans a concentration range>1000 fold.
# These values are plotted against the molar compound concentrations using the standard four parameter logistic equation:
# y=((Vmax*x^n)/(K^n+x^n))+Y2 • where: • Y2=minimum y n=slope factor • Vmax=maximum y x=compound concentration [M] • K=EC50
# [4] = infected immediately (0 h), read-out: WT IC50 at t = 0 h
# [5] = Table 4, luciferase signal after 3 days of culture
# [6] = Table 5, mean of a greater number of data replicates
# [7] = infected 48 h after removal of compound, read-out: WT IC50 at t = 48 h
# [8] = Human immunodeficiency virus 1, NL43, U373 MG, 72 h
# [9] = Human immunodeficiency virus 1, NL43, U373 MG
Compound,"pIC50 [2, 6]","pIC50 [3, 9]",further results
"C#C[C@]1(CO)O[C@@H](n2cnc3c(N)nc(F)nc32)C[C@@H]1O [EFdA, (2R,3S,5R)-5-(6-amino-2-fluoro-9H-purin-9-yl)-2-ethynyl-2-(hydroxymethyl)tetrahydrofuran-3-ol, reference compound]",–,–,"pIC50 [1, 4]: 8.13; Fold Change vs EFdA [1]: 1.00; Persistence Index [1]: 42.87"
"C#C[C@]1(COC(=O)CCCCCCCCCCCCC)O[C@@H](n2cnc3c(N)nc(F)nc32)C[C@@H]1O [Example 1, ((2R,3S,5R)-5-(6-amino-2-fluoro-9H-purin-9-yl)-2-ethynyl-3-hydroxytetrahydrofuran-2-yl)methyl tetradecanoate]",8.00,9.00,"pIC50 [2, 5]: 7.92; pIC50 [1, 7]: 7.05; pIC50 [1, 4]: 8.60; Fold Change vs EFdA [1]: 1.33; Persistence Index [1]: 35.22; pIC50 [3, 8]: 8.70"
"C#C[C@]1(COC(=O)CCCCCC)O[C@@H](n2cnc3c(N)nc(F)nc32)C[C@@H]1O [Example 2, ((2R,3S,5R)-5-(6-amino-2-fluoro-9H-purin-9-yl)-2-ethynyl-3-hydroxytetrahydrofuran-2-yl)methyl heptanoate]",7.82,8.52,"pIC50 [2, 5]: 7.92; pIC50 [3, 8]: 8.52"
"C#C[C@]1(COC(=O)CCCCCCCCC)O[C@@H](n2cnc3c(N)nc(F)nc32)C[C@@H]1O [Example 3, ((2R,3S,5R)-5-(6-amino-2-fluoro-9H-purin-9-yl)-2-ethynyl-3-hydroxytetrahydrofuran-2-yl)methyl decanoate]",7.85,8.52,"pIC50 [2, 5]: 7.82; pIC50 [3, 8]: 8.70"
"C#C[C@]1(COC(=O)C(CCC)CCC)O[C@@H](n2cnc3c(N)nc(F)nc32)C[C@@H]1O [Example 4, ((2R,3S,5R)-5-(6-amino-2-fluoro-9H-purin-9-yl)-2-ethynyl-3-hydroxytetrahydrofuran-2-yl)methyl 2-propyl pentanoate]",6.95,7.70,"pIC50 [2, 5]: 6.92; pIC50 [1, 7]: 6.16; pIC50 [1, 4]: 7.68; Fold Change vs EFdA [1]: 1.31; Persistence Index [1]: 32.78; pIC50 [3, 8]: 7.85"
"C#C[C@]1(COC(=O)CCCCCCCCCCCCCCCCCCC)O[C@@H](n2cnc3c(N)nc(F)nc32)C[C@@H]1O [Example 5, ((2R,3S,5R)-5-(6-amino-2-fluoro-9H-purin-9-yl)-2-ethynyl-3-hydroxytetrahydrofuran-2-yl)methyl icosanoate]",6.48,7.17,"pIC50 [2, 5]: 6.49; pIC50 [1, 7]: 6.99; pIC50 [1, 4]: 7.29; Fold Change vs EFdA [1]: 23.90; Persistence Index [1]: 1.97; pIC50 [3, 8]: 7.15"
"C#C[C@]1(COC(=O)CCCCCCC/C=C\C/C=C\C/C=C\CC)O[C@@H](n2cnc3c(N)nc(F)nc32)C[C@@H]1O [Example 6, (9Z,12Z,15Z)-((2R,3S,5R)-5-(6-amino-2-fluoro-9H-purin-9-yl)-2-ethynyl-3-hydroxytetrahydrofuran-2-yl)methyl octadeca-9,12,15-trienoate]",7.68,8.40,"pIC50 [2, 5]: 7.62; pIC50 [1, 7]: 6.75; pIC50 [1, 4]: 8.43; Fold Change vs EFdA [1]: 0.75; Persistence Index [1]: 56.90; pIC50 [3, 8]: 8.40"
"C#C[C@]1(COC(C)=O)O[C@@H](n2cnc3c(N)nc(F)nc32)C[C@@H]1O [Example 7, ((2R,3S,5R)-5-(6-amino-2-fluoro-9H-purin-9-yl)-2-ethynyl-3-hydroxytetrahydrofuran-2-yl)methyl acetate]",7.26,7.85,–
"C#C[C@]1(COC(=O)CC)O[C@@H](n2cnc3c(N)nc(F)nc32)C[C@@H]1O [Example 8, ((2R,3S,5R)-5-(6-amino-2-fluoro-9H-purin-9-yl)-2-ethynyl-3-hydroxytetrahydrofuran-2-yl)methyl propionate]",7.41,8.10,–
"C#C[C@]1(COC(=O)CCC)O[C@@H](n2cnc3c(N)nc(F)nc32)C[C@@H]1O [Example 9, ((2R,3S,5R)-5-(6-amino-2-fluoro-9H-purin-9-yl)-2-ethynyl-3-hydroxytetrahydrofuran-2-yl)methyl butyrate]",7.59,8.30,–
"C#C[C@]1(COC(=O)CCCC)O[C@@H](n2cnc3c(N)nc(F)nc32)C[C@@H]1O [Example 10, ((2R,3S,5R)-5-(6-amino-2-fluoro-9H-purin-9-yl)-2-ethynyl-3-hydroxytetrahydrofuran-2-yl)methyl pentanoate]",7.72,8.52,–
"C#C[C@]1(COC(=O)CCCCCCCC)O[C@@H](n2cnc3c(N)nc(F)nc32)C[C@@H]1O [Example 11, ((2R,3S,5R)-5-(6-amino-2-fluoro-9H-purin-9-yl)-2-ethynyl-3-hydroxytetrahydrofuran-2-yl)methyl nonanoate]",7.89,8.52,–
"C#C[C@]1(COC(=O)CCCCCCCCCC)O[C@@H](n2cnc3c(N)nc(F)nc32)C[C@@H]1O [Example 12, ((2R,3S,5R)-5-(6-amino-2-fluoro-9H-purin-9-yl)-2-ethynyl-3-hydroxytetrahydrofuran-2-yl)methyl undecanoate]",8.05,8.70,–
"C#C[C@]1(COC(=O)CCCCCCCCCCCC)O[C@@H](n2cnc3c(N)nc(F)nc32)C[C@@H]1O [Example 13, ((2R,3S,5R)-5-(6-amino-2-fluoro-9H-purin-9-yl)-2-ethynyl-3-hydroxytetrahydrofuran-2-yl)methyl tridecanoate]",7.92,8.70,–
"C#C[C@]1(COC(=O)CCCCCCCCCCCCCC)O[C@@H](n2cnc3c(N)nc(F)nc32)C[C@@H]1O [Example 14, ((2R,3S,5R)-5-(6-amino-2-fluoro-9H-purin-9-yl)-2-ethynyl-3-hydroxytetrahydrofuran-2-yl)methyl pentadecanoate]",7.96,8.70,–
"C#C[C@]1(COC(=O)CCCCCCCCCCCCCCCC)O[C@@H](n2cnc3c(N)nc(F)nc32)C[C@@H]1O [Example 15, ((2R,3S,5R)-5-(6-amino-2-fluoro-9H-purin-9-yl)-2-ethynyl-3-hydroxytetrahydrofuran-2-yl)methyl heptadecanoate]",7.59,8.40,–
"C#C[C@]1(COC(=O)CCCCCCCC#CC)O[C@@H](n2cnc3c(N)nc(F)nc32)C[C@@H]1O [Example 17, ((2R,3S,5R)-5-(6-amino-2-fluoro-9H-purin-9-yl)-2-ethynyl-3-hydroxytetrahydrofuran-2-yl)methyl undec-9-ynoate]",7.89,8.52,–
"C#C[C@]1(COC(=O)CCCCCCCC#CCCCCCCCC)O[C@@H](n2cnc3c(N)nc(F)nc32)C[C@@H]1O [Example 18, ((2R,3S,5R)-5-(6-amino-2-fluoro-9H-purin-9-yl)-2-ethynyl-3-hydroxytetrahydrofuran-2-yl)methyl octadec-9-ynoate]",7.85,8.70,–
"C#C[C@]1(COC(=O)C(C)(C)C)O[C@@H](n2cnc3c(N)nc(F)nc32)C[C@@H]1O [Example 19, ((2R,3S,5R)-5-(6-amino-2-fluoro-9H-purin-9-yl)-2-ethynyl-3-hydroxytetrahydrofuran-2-yl)methyl pivalate]",6.82,7.52,–
"C#C[C@]1(COC(=O)C(C)(C)CCC)O[C@@H](n2cnc3c(N)nc(F)nc32)C[C@@H]1O [Example 20, ((2R,3S,5R)-5-(6-amino-2-fluoro-9H-purin-9-yl)-2-ethynyl-3-hydroxytetrahydrofuran-2-yl)methyl 2,2-dimethylpentanoate]",7.04,7.60,–
"C#C[C@]1(COC(=O)C(CCCC)CCCCCC)O[C@@H](n2cnc3c(N)nc(F)nc32)C[C@@H]1O (stereo partly drawn) [Example 21, ((2R,3S,5R)-5-(6-amino-2-fluoro-9H-purin-9-yl)-2-ethynyl-3-hydroxytetrahydrofuran-2-yl)methyl 2-butyloctanoate]",6.95,7.60,–
"C#C[C@]1(COC(=O)C(CCCCCC)CCCCCCCC)O[C@@H](n2cnc3c(N)nc(F)nc32)C[C@@H]1O (stereo partly drawn) [Example 22, ((2R,3S,5R)-5-(6-amino-2-fluoro-9H-purin-9-yl)-2-ethynyl-3-hydroxytetrahydrofuran-2-yl)methyl 2-hexyldecanoate]",6.75,7.44,–
"C#C[C@]1(COC(=O)C(C)CCCCC)O[C@@H](n2cnc3c(N)nc(F)nc32)C[C@@H]1O (stereo partly drawn) [Example 23, ((2R,3S,5R)-5-(6-amino-2-fluoro-9H-purin-9-yl)-2-ethynyl-3-hydroxytetrahydrofuran-2-yl)methyl 2-methylheptanoate]",8.15,9.00,–
"C#C[C@]1(COC(=O)CC(F)(F)F)O[C@@H](n2cnc3c(N)nc(F)nc32)C[C@@H]1O [Example 24, ((2R,3S,5R)-5-(6-amino-2-fluoro-9H-purin-9-yl)-2-ethynyl-3-hydroxytetrahydrofuran-2-yl)methyl 3,3,3-trifluoropropanoate]",7.43,8.10,–
"C#C[C@]1(COC(=O)C(C)(C)C(F)(F)F)O[C@@H](n2cnc3c(N)nc(F)nc32)C[C@@H]1O [Example 25, ((2R,3S,5R)-5-(6-amino-2-fluoro-9H-purin-9-yl)-2-ethynyl-3-hydroxytetrahydrofuran-2-yl)methyl 3,3,3-trifluoro-2,2-dimethylpropanoate]",7.05,7.68,–
"((2R,3S,5R)-5-(6-amino-2-fluoro-9H-purin-9-yl)-2-ethynyl-3-hydroxytetrahydrofuran-2-yl)methyl tetracosanoate [Example 16]",4.97,–,"pIC50 [3, 6]: 5.64"
